Where two headings read alike, the source gives them in different places. Each block holds one substance with its values, some of them ahead of it. Where no end group is shown, it is not given here.
Experiments:
Test in all cases: MHC II competition binding assay
[1] = target: DRB1*1101 (Homo sapiens, UniProt P01903+P01911, A100R/A169T/A87E/I96F/K41T/L162R/M171V/P40S/Q125H/Q178H/Q39Y/Q99D/R42S/S66Y/T262R/V115G/W38E)
Procedure: (§1) MHC Binding Assays. MHC II competition binding assays were performed using a 384-well high throughput assay as previously described (Salvat, et al. (2014) supra). Binding assays were performed for the eight alleles: DRB1*0101, 0301, 0401, 0701, 0801, 1101, 1301, and 1501. Briefly, 100 nM biotinylated control peptides composed of known peptide antigens for each MHC II allele were incubated in polypropylene 384-well plates with 50 nM purified recombinant MHC II protein and serial dilutions of LST or variant peptide fragments (100 μM to 10 nM). Peptide-MHC II complexes were captured from equilibrated solutions using the conformation specific anti-HLA-DR antibody L243 coated on high binding ELISA plates. Bound control peptide was quantified using the DELFIA streptavidin-Europium conjugate and time resolved fluorescence (SpectraMax Gemini Fluorescence Microplate Reader).

[2] = target: DRB1*1301 (Homo sapiens, UniProt P01903+P01911, A100E/A169T/K41T/L162R/M171V/P40S/Q125H/Q178H/Q39Y/Q99D/R42S/S66N/T262R/W38E/Y61H)
Procedure: as §1

[3] = target: T1, DRB1*0101 (Homo sapiens, UniProt P01903+P01911, A100R/D57E/F55L/F60I/F76Y/I96L/L162R/M171V/P40L/Q125E/R42F/V115G/Y59C)
T1 construct: purchased Benaroya Research Institute (Seattle, Wash.)
Procedure: as §1

[4] = target: T2, DRB1*0301 (Homo sapiens, UniProt P01903+P01911, A100K/A102G/A103R/A169T/F55Y/I96L/K41T/L162R/M171V/P40S/Q125H/Q178H/Q39Y/R42S/S66N/T106N/T262R/W38E/Y61H)
T2 construct: purchased Benaroya Research Institute (Seattle, Wash.)
Procedure: as §1

[5] = target: DRB1*0701 (Homo sapiens, UniProt P01903+P01911, A100R/A102G/A103Q/D57E/D86V/E43K/F76Y/K127E/L162R/M171V/P40G/Q125H/Q99D/R33Q/R42Y/R54Q/S133A/S66F/T210M/V115G/Y107V/Y59L/Y89S)
Procedure: as §1

[6] = target: DRB1*0801 (Homo sapiens, UniProt P01903+P01911, A100R/A103L/A169T/D86S/F76Y/H45Y/I96F/K41T/L162R/M171V/P40S/Q125H/Q178H/Q39Y/Q99D/R218S/R42G/S66Y/V115G/W38E)
Procedure: as §1

[7] = target: T3, DRB1*0401 (Homo sapiens, UniProt P01903+P01911, A100K/A169T/F76Y/I96L/K127E/L162R/M171V/N62H/P40V/Q125Y/R42H/S133A/S149N/S66Y/V115G/V209L/W38E)
T3 construct: purchased Benaroya Research Institute (Seattle, Wash.)
Procedure: as §1

[8] = target: T4, DRB1*1501 (Homo sapiens, UniProt P01903+P01911)
T4 construct: purchased Benaroya Research Institute (Seattle, Wash.)
Procedure: as §1, with “MHC II competition binding assays were performed using a 384-well high throughput assay as previously described (Salvat, et al. (2014) supra). Binding assays were performed for the eight alleles: DRB1*0101, 0301, 0401, 0701, 0801, 1101, 1301, and 1501.” left out

[9] = synthetic peptide competing with biotinylated control peptide, read-out: IC50 0101
[10] = synthetic peptide competing with biotinylated control peptide, read-out: IC50 0301
[11] = synthetic peptide competing with biotinylated control peptide, read-out: IC50 0701
[12] = synthetic peptide competing with biotinylated control peptide, read-out: IC50 0401
[13] = synthetic peptide competing with biotinylated control peptide, read-out: IC50 1501
[14] = synthetic peptide competing with biotinylated control peptide, read-out: IC50 0801

Substance: HLHFQRMVGDFSNPTAQ [Peptide 21_22]
IC50 [1]: 28.5 µM | IC50 [2]: > 250 µM | IC50 [3]: < 0.01 µM | IC50 [4]: 77.4 µM | IC50 [5]: > 250 µM | IC50 [6]: 210 µM | IC50 [7]: < 0.01 µM | IC50 [8]: < 0.01 µM

Substance: HLHFQRMVGSFSNPTAQ [Peptide N121G]
IC50 ([1]; DRB1*1101, read-out: IC50): 6.41 µM | IC50 ([2]; DRB1*1301, read-out: IC50): > 250 µM | IC50 ([3]; DRB1*0101, read-out: IC50): < 0.01 µM | IC50 ([4]; DRB1*0301, read-out: IC50): > 250 µM | IC50 ([5]; DRB1*0701, read-out: IC50): 17.4 µM | IC50 ([6]; DRB1*0801, read-out: IC50): > 250 µM | IC50 ([7]; DRB1*0401, read-out: IC50): 6.13 µM | IC50 [8]: < 0.01 µM

Substance: HLHFQRMVNDFSNPTAQ [Peptide S122D]
IC50 [1]: < 0.01 µM | IC50 [2]: > 250 µM | IC50 [3]: < 0.01 µM | IC50 [4]: 9.42 µM | IC50 [5]: > 250 µM | IC50 [6]: 150 µM | IC50 [7]: < 0.01 µM | IC50 [8]: < 0.01 µM

IC50 ([2]; DRB1*1301, read-out: IC50): > 250 µM | IC50 ([3]; DRB1*0101, read-out: IC50): < 0.01 µM | IC50 ([4]; DRB1*0301, read-out: IC50): > 250 µM | IC50 ([6]; DRB1*0801, read-out: IC50): > 250 µM | IC50 ([8]; DRB1*1501, read-out: IC50): < 0.01 µM
Substance: HLHFQRMVNSFGNPTAQ [Peptide S124G]

IC50 ([1]; DRB1*1101, read-out: IC50): < 0.01 µM | IC50 ([2]; DRB1*1301, read-out: IC50): > 250 µM | IC50 ([4]; DRB1*0301, read-out: IC50): > 250 µM | IC50 ([5]; DRB1*0701, read-out: IC50): 15.2 µM | IC50 ([6]; DRB1*0801, read-out: IC50): 22 µM | IC50 ([7]; DRB1*0401, read-out: IC50): 0.05 µM | IC50 ([8]; DRB1*1501, read-out: IC50): < 0.01 µM
Substance: HLHFQRMVNSFSNPTAQ [Design C5WT]

Substance: HLHFQTMVNDFGNPTAQ [Peptide 182224]
IC50 [1]: 14.1 µM | IC50 [2]: > 250 µM | IC50 [3]: 7.43 µM | IC50 [4]: 133 µM | IC50 [5]: > 250 µM | IC50 [6]: > 250 µM | IC50 [7]: 7.52 µM | IC50 [8]: 0.42 µM

Substance: HLHFQTMVNDFSNPTAQ [Peptide 18_22]
IC50 [1]: < 0.01 µM | IC50 [2]: > 250 µM | IC50 [3]: < 0.01 µM | IC50 [4]: 28.2 µM | IC50 [5]: 111 µM | IC50 [6]: > 250 µM | IC50 [7]: < 0.01 µM | IC50 [8]: < 0.01 µM

Substance: HLHFQTMVNSFSNPTAQ [Peptide R118T]
IC50 [1]: < 0.01 µM | IC50 [2]: > 250 µM | IC50 [3]: < 0.01 µM | IC50 [4]: 68.4 µM | IC50 [5]: 23.1 µM | IC50 [6]: 57.7 µM | IC50 [7]: < 0.01 µM | IC50 [8]: < 0.01 µM

fold reduction in binding vs wild-type peptide, 1101 [1]: ten-fold | fold decrease in binding vs wild-type peptide, 0701 [5]: two-fold | fold decrease in binding vs wild-type peptide, 0801 [6]: approximately five-fold
Substance: Leu83Met: full-length lysostaphin single point mutant
binder class DRB1*1301 [2]: weak (weak if an IC50 value was in the 1-10 μM range) | binder class DRB1*0101 [3]: weak (weak if an IC50 value was in the 1-10 μM range) | binder class DRB1*0301 [4]: non-binder (All peptides above 10 μM were considered non-binders) | binder class DRB1*0701 [5]: moderate (moderate if an IC50 value was in the 0.1-1 μM range) | binder class DRB1*1501 [8]: moderate (moderate if an IC50 value was in the 0.1-1 μM range)

fold decrease in binding vs wild-type peptide, 0101 [3]: two-fold
Substance: Lys46His: full-length lysostaphin single point mutant

IC50 ([2]; synthetic peptide competing with biotinylated control peptide, read-out: IC50 1301): > 250 µM | IC50 [3, 9]: < 0.01 µM | IC50 [4, 10]: > 250 µM | IC50 [5, 11]: > 250 µM | IC50 [7, 12]: > 250 µM | IC50 [8, 13]: > 250 µM
Substance: SAQWLGNYKKGYGYG [Design N12G]

IC50 [3, 9]: > 250 µM | IC50 [4, 10]: > 250 µM | IC50 [5, 11]: > 250 µM | IC50 [6, 14]: > 250 µM | IC50 [7, 12]: > 250 µM | IC50 [8, 13]: > 250 µM
Substance: SAQWLNHYKKGYGYG [Design N13H]

IC50 [4, 10]: > 250 µM | IC50 [5, 11]: > 250 µM | IC50 [6, 14]: 13.7 µM | IC50 [7, 12]: > 250 µM | IC50 [8, 13]: 101 µM
Substance: SAQWLNNYKKGYGYG [Design C1WT]

binder class DRB1*0101 [3]: weak or non-binder | binder class DRB1*1501 [8]: weak/non-binder
Substance: Tyr93His/Lys95Glu/Ile99Gln: cluster 4 synthetic peptide with three mutations (Table 15) (DHVEAGQQIGWSGSTGY)

Substance: Tyr93His/Lys95Glu: cluster 4 synthetic peptide with Tyr93His and Lys95Glu (Table 15) (DHVEAGQIIGWSGSTGY)
binder class DRB1*0101 [3]: moderate (moderate if an IC50 value was in the 0.1-1 μM range)
